In patent US9738634B2, “Heterocyclic amide compound and herbicide” (SYNGENTA PARTICIPATIONS AG, priority 2013, dated 2017):

How the values were obtained:
Format in all cases: in vivo
Settings in all cases: treatment dosage 320 g/ha
oval-leafed pondweed [1] = test: Test Example 2: weedkilling efficacy, growth period weed treatment in the submerged state; C: oval-leafed pondweed
Procedure, shortened: (§1)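 Weeds treated at the 1-2 leaf stage by application of diluted emulsion onto floodwater (4 cm depth, alluvial soil) at specified g/ha. Grown in greenhouse at 25 to 30° C; herbicidal effect rated three weeks after treatment.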

birds-eye speedwell = test: Test Example 4: weedkilling efficacy by foliar treatment; p: birds-eye speedwell
Procedure, shortened: (§2)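 Seeds are spot-sown into sterilized diluvial soil and covered with about 1.5 cm of soil. After 14 days' greenhouse growth at 25 to 30° C, plants are sprayed on stems and leaves with diluted emulsion at the stated g/ha rate, then scored at 3 weeks.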

chickweed [2] = test: Test Example 3: weedkilling efficacy through soil treatment; N: chickweed
Procedure, shortened: (§3)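 Crop and weed responses were judged three weeks after a uniform surface spray of the water-diluted emulsion at the given g/ha rate. Seeds sat beneath about 1.5 cm of sterilized diluvial soil, and boxes stood in a greenhouse at 25 to 30° C.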

crabgrass [3] = test: Test Example 3: weedkilling efficacy through soil treatment; D: crabgrass
Procedure, shortened: as §3

black-grass [4] = test: Test Example 4: weedkilling efficacy by foliar treatment; H: black-grass
Procedure, shortened: as §2

crabgrass [5] = test: Test Example 4: weedkilling efficacy by foliar treatment; D: crabgrass
Procedure, shortened: as §2

black-grass [6] = test: Test Example 3: weedkilling efficacy through soil treatment; H: black-grass
Procedure, shortened: as §3

rapeseed [7] = test: Test Example 3: soil treatment, effect on crop; g: rapeseed
Procedure, shortened: as §3

redroot pigweed [8] = test: Test Example 4: weedkilling efficacy by foliar treatment; L: redroot pigweed
Procedure, shortened: as §2

corn [9] = test: Test Example 4: foliar treatment, effect on crop; c: corn
Procedure, shortened: as §2

barnyard grass [10] = test: Test Example 3: weedkilling efficacy through soil treatment; F: barnyard grass
Procedure, shortened: as §3

barnyard grass [11] = test: Test Example 2: weedkilling efficacy, growth period weed treatment in the submerged state; A: barnyard grass
Procedure, shortened: as §1

catchweed [12] = test: Test Example 4: weedkilling efficacy by foliar treatment; O: catchweed
Procedure, shortened: as §2

beet [13] = test: Test Example 3: soil treatment, effect on crop; f: beet
Procedure, shortened: as §3

wheat [14] = test: Test Example 4: foliar treatment, effect on crop; e: wheat
Procedure, shortened: as §2

corn [15] = test: Test Example 3: soil treatment, effect on crop; c: corn
Procedure, shortened: as §3

directly sown rice [16] = test: Test Example 3: soil treatment, effect on crop; b: directly sown rice
Procedure, shortened: as §3

redroot pigweed [17] = test: Test Example 3: weedkilling efficacy through soil treatment; L: redroot pigweed
Procedure, shortened: as §3

wheat [18] = test: Test Example 3: soil treatment, effect on crop; e: wheat
Procedure, shortened: as §3

Indian mallow [19] = test: Test Example 4: weedkilling efficacy by foliar treatment; K: Indian mallow
Procedure, shortened: as §2

bulrush [20] = test: Test Example 2: weedkilling efficacy, growth period weed treatment in the submerged state; B: bulrush
Procedure, shortened: as §1

catchweed [21] = test: Test Example 3: weedkilling efficacy through soil treatment; O: catchweed
Procedure, shortened: as §3

beet [22] = test: Test Example 4: foliar treatment, effect on crop; f: beet
Procedure, shortened: as §2

Italian ryegrass [23] = test: Test Example 3: weedkilling efficacy through soil treatment; I: Italian ryegrass
Procedure, shortened: as §3

barnyard grass [24] = test: Test Example 1: weedkilling efficacy, preemergent weed treatment in the submerged state; A: barnyard grass
Procedure, shortened: (§4)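 Pre-emergence application onto floodwater (4 cm, alluvial soil) on the day of sowing, dose expressed as g/ha from diluted emulsion formulation. Weeds sown with 2.5-leaf transplanted rice as crop; plants held at 25–30 °C in greenhouse and scored against assessment criteria after 3 weeks.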

directly sown rice [25] = test: Test Example 4: foliar treatment, effect on crop; b: directly sown rice
Procedure, shortened: as §2

common wind-grass [26] = test: Test Example 4: weedkilling efficacy by foliar treatment; J: common wind-grass
Procedure, shortened: as §2

Indian mallow [27] = test: Test Example 3: weedkilling efficacy through soil treatment; K: Indian mallow
Procedure, shortened: as §3

common wind-grass [28] = test: Test Example 3: weedkilling efficacy through soil treatment; J: common wind-grass
Procedure, shortened: as §3

wild oat [29] = test: Test Example 3: weedkilling efficacy through soil treatment; G: wild oat
Procedure, shortened: as §3

transplanted rice = test: Test Example 1: preemergent weed treatment in the submerged state, effect on crop; a: transplanted rice
Procedure, shortened: as §4

green foxtail [30] = test: Test Example 4: weedkilling efficacy by foliar treatment; E: green foxtail
Procedure, shortened: as §2

barnyard grass [31] = test: Test Example 4: weedkilling efficacy by foliar treatment; F: barnyard grass
Procedure, shortened: as §2

Italian ryegrass [32] = test: Test Example 4: weedkilling efficacy by foliar treatment; I: Italian ryegrass
Procedure, shortened: as §2

chickweed [33] = test: Test Example 4: weedkilling efficacy by foliar treatment; N: chickweed
Procedure, shortened: as §2

bulrush [34] = test: Test Example 1: weedkilling efficacy, preemergent weed treatment in the submerged state; B: bulrush
Procedure, shortened: as §4

fig-leafed goosefoot [35] = test: Test Example 4: weedkilling efficacy by foliar treatment; M: fig-leafed goosefoot
Procedure, shortened: as §2

green foxtail [36] = test: Test Example 3: weedkilling efficacy through soil treatment; E: green foxtail
Procedure, shortened: as §3

fig-leafed goosefoot [37] = test: Test Example 3: weedkilling efficacy through soil treatment; M: fig-leafed goosefoot
Procedure, shortened: as §3

soybean [38] = test: Test Example 3: soil treatment, effect on crop; d: soybean
Procedure, shortened: as §3

rapeseed [39] = test: Test Example 4: foliar treatment, effect on crop; g: rapeseed
Procedure, shortened: as §2

wild oat [40] = test: Test Example 4: weedkilling efficacy by foliar treatment; G: wild oat
Procedure, shortened: as §2

soybean [41] = test: Test Example 4: foliar treatment, effect on crop; d: soybean
Procedure, shortened: as §2

oval-leafed pondweed [42] = test: Test Example 1: weedkilling efficacy, preemergent weed treatment in the submerged state; C: oval-leafed pondweed
Procedure, shortened: as §4

Structure (SMILES): CC1=C(c2ccccc2)C(=O)N(C(C)(C)C(=O)Nc2cc(C(F)(F)F)cc(C)n2)CO1 [B-2-51]
- C (oval-leafed pondweed) weedkilling efficacy grade (oval-leafed pondweed [1]): 5 (weed kill ratio 90% or more, (practically complete withering))
- P (birds-eye speedwell) weedkilling efficacy grade (birds-eye speedwell): 4 (weed kill ratio 70% or more, less than 90%)
- N (chickweed) weedkilling efficacy grade (chickweed [2]): 4 (weed kill ratio 70% or more, less than 90%)
- D (crabgrass) weedkilling efficacy grade (crabgrass [3]): 5 (weed kill ratio 90% or more, (practically complete withering))
- H (black-grass) weedkilling efficacy grade (black-grass [4]): 5 (weed kill ratio 90% or more, (practically complete withering))
- D (crabgrass) weedkilling efficacy grade (crabgrass [5]): 5 (weed kill ratio 90% or more, (practically complete withering))
- H (black-grass) weedkilling efficacy grade (black-grass [6]): 5 (weed kill ratio 90% or more, (practically complete withering))
- g (rapeseed) effect on crop grade (rapeseed [7]): 2 (weed kill ratio 20% or more, less than 40%)
- L (redroot pigweed) weedkilling efficacy grade (redroot pigweed [8]): 4 (weed kill ratio 70% or more, less than 90%)
- c (corn) effect on crop grade (corn [9]): 0 (weed kill ratio 5% or less (practically no effect))
- F (barnyard grass) weedkilling efficacy grade (barnyard grass [10]): 5 (weed kill ratio 90% or more, (practically complete withering))
- A (barnyard grass) weedkilling efficacy grade (barnyard grass [11]): 5 (weed kill ratio 90% or more, (practically complete withering))
- O (catchweed) weedkilling efficacy grade (catchweed [12]): 4 (weed kill ratio 70% or more, less than 90%)
- f (beet) effect on crop grade (beet [13]): 4 (weed kill ratio 70% or more, less than 90%)
- e (wheat) effect on crop grade (wheat [14]): 1 (weed kill ratio 5% or more, less than 20%)
- c (corn) effect on crop grade (corn [15]): 1 (weed kill ratio 5% or more, less than 20%)
- b (directly sown rice) effect on crop grade (directly sown rice [16]): 3 (weed kill ratio 40% or more, less than 70%)
- L (redroot pigweed) weedkilling efficacy grade (redroot pigweed [17]): 4 (weed kill ratio 70% or more, less than 90%)
- e (wheat) effect on crop grade (wheat [18]): 0 (weed kill ratio 5% or less (practically no effect))
- K (Indian mallow) weedkilling efficacy grade (Indian mallow [19]): 4 (weed kill ratio 70% or more, less than 90%)
- B (bulrush) weedkilling efficacy grade (bulrush [20]): 5 (weed kill ratio 90% or more, (practically complete withering))
- O (catchweed) weedkilling efficacy grade (catchweed [21]): 3 (weed kill ratio 40% or more, less than 70%)
- f (beet) effect on crop grade (beet [22]): 4 (weed kill ratio 70% or more, less than 90%)
- I (Italian ryegrass) weedkilling efficacy grade (Italian ryegrass [23]): 5 (weed kill ratio 90% or more, (practically complete withering))
- A (barnyard grass) weedkilling efficacy grade (barnyard grass [24]): 5 (weed kill ratio 90% or more, (practically complete withering))
- b (directly sown rice) effect on crop grade (directly sown rice [25]): 4 (weed kill ratio 70% or more, less than 90%)
- J (common wind-grass) weedkilling efficacy grade (common wind-grass [26]): 5 (weed kill ratio 90% or more, (practically complete withering))
- K (Indian mallow) weedkilling efficacy grade (Indian mallow [27]): 2 (weed kill ratio 20% or more, less than 40%)
- J (common wind-grass) weedkilling efficacy grade (common wind-grass [28]): 5 (weed kill ratio 90% or more, (practically complete withering))
- G (wild oat) weedkilling efficacy grade (wild oat [29]): 5 (weed kill ratio 90% or more, (practically complete withering))
- a (transplanted rice) effect on crop grade (transplanted rice): 0 (weed kill ratio 5% or less (practically no effect))
- E (green foxtail) weedkilling efficacy grade (green foxtail [30]): 5 (weed kill ratio 90% or more, (practically complete withering))
- F (barnyard grass) weedkilling efficacy grade (barnyard grass [31]): 5 (weed kill ratio 90% or more, (practically complete withering))
- I (Italian ryegrass) weedkilling efficacy grade (Italian ryegrass [32]): 5 (weed kill ratio 90% or more, (practically complete withering))
- N (chickweed) weedkilling efficacy grade (chickweed [33]): 4 (weed kill ratio 70% or more, less than 90%)
- B (bulrush) weedkilling efficacy grade (bulrush [34]): 5 (weed kill ratio 90% or more, (practically complete withering))
- M (fig-leafed goosefoot) weedkilling efficacy grade (fig-leafed goosefoot [35]): 4 (weed kill ratio 70% or more, less than 90%)
- E (green foxtail) weedkilling efficacy grade (green foxtail [36]): 5 (weed kill ratio 90% or more, (practically complete withering))
- M (fig-leafed goosefoot) weedkilling efficacy grade (fig-leafed goosefoot [37]): 4 (weed kill ratio 70% or more, less than 90%)
- d (soybean) effect on crop grade (soybean [38]): 0 (weed kill ratio 5% or less (practically no effect))
- g (rapeseed) effect on crop grade (rapeseed [39]): 3 (weed kill ratio 40% or more, less than 70%)
- G (wild oat) weedkilling efficacy grade (wild oat [40]): 5 (weed kill ratio 90% or more, (practically complete withering))
- d (soybean) effect on crop grade (soybean [41]): 3 (weed kill ratio 40% or more, less than 70%)
- C (oval-leafed pondweed) weedkilling efficacy grade (oval-leafed pondweed [42]): 5 (weed kill ratio 90% or more, (practically complete withering))
